Where only a bound is given, the exact number is not on record here.

Results on 14 compounds are retold here after patent US11993599B2, “Therapeutic compounds” (Genentech, Inc., priority 2021, dated 2024).

Holding throughout (assay type): cell-based
Test [1] has as its target T1, BRM (Homo sapiens, UniProt P51531). Description: Immunofluorescence assay for BRM degradation in SW1573 cells. Set-up: treated overnight at 4° C. with either BRM primary antibody (Cell signaling Cat #11966) or BRG primary antibody; endogenous in cells; host or cells: SW1573. The settings on record: 20 hours incubation; for DC50: immunofluorescence mean nuclear signal, read-out: BRM IF Degradation IC50; for BRM IF Degradation Sinf (%): normalized to a known degrader control. The method, boiled down:
(§1)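 Degradation measured as loss of nuclear BRM or BRG1 staining in SW1573 cells after 20 h compound exposure. Signal per cell was imaged and normalized to a known degrader; curves with floating maximum yielded IC50 and Dmax.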

Test [2] deals with T1, BRM. Description: HiBIT nanoluciferase complementation screen for BRM degraders. The settings on record: 18 hours, BRM-HiBIT KI Hela cells, luminescence normalized: DMSO only = 0%, no cells = −100%; for Median HiBiT activity 1 μM: compound 1 μM; for Median HiBiT activity 10 μM: compound 10 μM. The source says: Example B-1: HiBIT Nanoluciferase Complementation Screen for BRM Degraders
To assess BRM degradation, compounds were screened for their effect of BRM levels using the HiBIT nanoluciferase complementation strategy developed at Promega. In brief, a HELA cell line that was genetically modified via CRISPR/CAS9 was used to fuse the HiBIT sequence at the 3′ end of BRM (BRM-HiBIT KI Hela). BRM protein levels were then detected using the Nano-Glo HiBIT lytic detection reagent (Promega).
The screened compounds were plated into a white 384-well plate at 10 μM and 1 μM in 25 nL DMSO using an Echo dispenser (Labcyte). BRM-HiBIT KI Hela cells were seeded in the compound plate at 5000 cell per well at 25 μl in DMEM growth media (containing 10% FBS, 1% Glutamax (GIBCO cat #31053-028), lx Penicillin-Streptomycin (ROCHE, cat #1107444001), 4.5 g/L D-Glucose, and no phenol red). After incubation with compounds for 18 hours at 37° C., cell viability was assessed by the addition of 5 μl Cell Titer-Fluor reagent (Promega). After 30 s of mixing on an orbital shaker, and 30 minutes incubation at 37° C., fluorescence was measured with an INFINITE F500 (Tecan) (380-400 nm excitation, 505 nm emission). Next, to assess BRM HiBIT levels, 30 μl of Nano-Glo HiBIT lytic detection reagent (Promega) containing 1:50 Nano-Glo HiBIT lytic substrate and 1:100 LgBIT protein per ml of lytic buffer was added. After shaking on an orbital shaker at 350 rpm for 10 minutes, luminescence was measured on the INFINITE F500 (Tecan). To assess compound effects, luminescence signal was normalized with the mean of wells treated with DMSO only set to 0% and the mean of wells containing no cells set to −100%. Note that, in Table 4, the “Compound Number” corresponds to that used in Table 1.
In general terms: The HiBiT peptide binds its large partner to form an active luciferase.

Test [3] has as its target T2, BRG1 (Homo sapiens, UniProt P51532).
T2 construct: either BRM primary antibody (Cell signaling Cat #11966) or BRG primary antibody (Abcam, ab 110641); endogenous in cells; host or cells: SW1573
In words: Immunofluorescence assay for BRG1 degradation in SW1573 cells. The settings on record: 20 hours incubation; for DC50: immunofluorescence mean nuclear signal, read-out: BRG1 IF Degradation IC50; for Dmax: SW1573, 20 h, normalized to a known degrader control, read-out: BRG1 IF Degradation Sinf (%). Put shortly:
as §1

T2 sequence (P51532 whole entry): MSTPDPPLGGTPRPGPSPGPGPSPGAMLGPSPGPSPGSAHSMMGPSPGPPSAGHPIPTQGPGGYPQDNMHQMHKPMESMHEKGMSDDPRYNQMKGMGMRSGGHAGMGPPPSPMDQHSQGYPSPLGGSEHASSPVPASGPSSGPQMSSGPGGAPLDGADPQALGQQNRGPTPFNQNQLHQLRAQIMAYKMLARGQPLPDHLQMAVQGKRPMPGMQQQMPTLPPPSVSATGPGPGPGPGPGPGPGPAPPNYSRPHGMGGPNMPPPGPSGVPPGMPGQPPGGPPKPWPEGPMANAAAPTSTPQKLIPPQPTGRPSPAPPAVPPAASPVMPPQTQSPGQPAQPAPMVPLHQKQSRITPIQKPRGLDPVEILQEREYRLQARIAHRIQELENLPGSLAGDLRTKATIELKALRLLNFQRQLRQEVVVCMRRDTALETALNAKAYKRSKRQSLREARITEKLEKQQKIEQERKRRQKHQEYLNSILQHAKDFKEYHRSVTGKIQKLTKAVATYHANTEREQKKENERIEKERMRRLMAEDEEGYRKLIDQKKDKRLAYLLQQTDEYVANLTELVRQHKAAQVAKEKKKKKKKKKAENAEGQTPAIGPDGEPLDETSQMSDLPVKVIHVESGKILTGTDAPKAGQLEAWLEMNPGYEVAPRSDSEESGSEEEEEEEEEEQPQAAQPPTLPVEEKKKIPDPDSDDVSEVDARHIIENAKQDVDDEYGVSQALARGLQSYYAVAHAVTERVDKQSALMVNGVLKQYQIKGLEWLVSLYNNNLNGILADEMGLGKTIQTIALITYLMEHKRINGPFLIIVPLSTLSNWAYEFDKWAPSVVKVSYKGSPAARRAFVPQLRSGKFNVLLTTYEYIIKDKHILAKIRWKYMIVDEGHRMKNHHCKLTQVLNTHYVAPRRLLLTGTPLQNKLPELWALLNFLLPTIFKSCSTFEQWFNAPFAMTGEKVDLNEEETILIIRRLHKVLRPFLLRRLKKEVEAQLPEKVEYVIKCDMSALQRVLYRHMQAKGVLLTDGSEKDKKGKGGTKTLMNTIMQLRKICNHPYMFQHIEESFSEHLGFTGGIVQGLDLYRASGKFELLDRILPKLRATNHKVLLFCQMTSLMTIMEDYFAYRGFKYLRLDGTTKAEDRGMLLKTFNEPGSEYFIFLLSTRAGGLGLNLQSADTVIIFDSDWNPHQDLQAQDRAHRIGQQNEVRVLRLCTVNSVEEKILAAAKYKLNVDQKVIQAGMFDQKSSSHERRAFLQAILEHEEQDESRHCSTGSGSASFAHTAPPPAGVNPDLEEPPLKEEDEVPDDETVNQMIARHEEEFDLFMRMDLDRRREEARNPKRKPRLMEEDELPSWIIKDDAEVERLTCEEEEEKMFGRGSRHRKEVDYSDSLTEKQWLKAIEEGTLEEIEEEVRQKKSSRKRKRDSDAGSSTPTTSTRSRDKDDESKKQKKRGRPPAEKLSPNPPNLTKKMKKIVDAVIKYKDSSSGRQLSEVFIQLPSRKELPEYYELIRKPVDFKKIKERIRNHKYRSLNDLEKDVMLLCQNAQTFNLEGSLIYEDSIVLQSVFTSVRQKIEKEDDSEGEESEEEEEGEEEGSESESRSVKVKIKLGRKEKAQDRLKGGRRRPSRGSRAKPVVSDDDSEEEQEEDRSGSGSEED
T1 sequence (P51531 whole entry): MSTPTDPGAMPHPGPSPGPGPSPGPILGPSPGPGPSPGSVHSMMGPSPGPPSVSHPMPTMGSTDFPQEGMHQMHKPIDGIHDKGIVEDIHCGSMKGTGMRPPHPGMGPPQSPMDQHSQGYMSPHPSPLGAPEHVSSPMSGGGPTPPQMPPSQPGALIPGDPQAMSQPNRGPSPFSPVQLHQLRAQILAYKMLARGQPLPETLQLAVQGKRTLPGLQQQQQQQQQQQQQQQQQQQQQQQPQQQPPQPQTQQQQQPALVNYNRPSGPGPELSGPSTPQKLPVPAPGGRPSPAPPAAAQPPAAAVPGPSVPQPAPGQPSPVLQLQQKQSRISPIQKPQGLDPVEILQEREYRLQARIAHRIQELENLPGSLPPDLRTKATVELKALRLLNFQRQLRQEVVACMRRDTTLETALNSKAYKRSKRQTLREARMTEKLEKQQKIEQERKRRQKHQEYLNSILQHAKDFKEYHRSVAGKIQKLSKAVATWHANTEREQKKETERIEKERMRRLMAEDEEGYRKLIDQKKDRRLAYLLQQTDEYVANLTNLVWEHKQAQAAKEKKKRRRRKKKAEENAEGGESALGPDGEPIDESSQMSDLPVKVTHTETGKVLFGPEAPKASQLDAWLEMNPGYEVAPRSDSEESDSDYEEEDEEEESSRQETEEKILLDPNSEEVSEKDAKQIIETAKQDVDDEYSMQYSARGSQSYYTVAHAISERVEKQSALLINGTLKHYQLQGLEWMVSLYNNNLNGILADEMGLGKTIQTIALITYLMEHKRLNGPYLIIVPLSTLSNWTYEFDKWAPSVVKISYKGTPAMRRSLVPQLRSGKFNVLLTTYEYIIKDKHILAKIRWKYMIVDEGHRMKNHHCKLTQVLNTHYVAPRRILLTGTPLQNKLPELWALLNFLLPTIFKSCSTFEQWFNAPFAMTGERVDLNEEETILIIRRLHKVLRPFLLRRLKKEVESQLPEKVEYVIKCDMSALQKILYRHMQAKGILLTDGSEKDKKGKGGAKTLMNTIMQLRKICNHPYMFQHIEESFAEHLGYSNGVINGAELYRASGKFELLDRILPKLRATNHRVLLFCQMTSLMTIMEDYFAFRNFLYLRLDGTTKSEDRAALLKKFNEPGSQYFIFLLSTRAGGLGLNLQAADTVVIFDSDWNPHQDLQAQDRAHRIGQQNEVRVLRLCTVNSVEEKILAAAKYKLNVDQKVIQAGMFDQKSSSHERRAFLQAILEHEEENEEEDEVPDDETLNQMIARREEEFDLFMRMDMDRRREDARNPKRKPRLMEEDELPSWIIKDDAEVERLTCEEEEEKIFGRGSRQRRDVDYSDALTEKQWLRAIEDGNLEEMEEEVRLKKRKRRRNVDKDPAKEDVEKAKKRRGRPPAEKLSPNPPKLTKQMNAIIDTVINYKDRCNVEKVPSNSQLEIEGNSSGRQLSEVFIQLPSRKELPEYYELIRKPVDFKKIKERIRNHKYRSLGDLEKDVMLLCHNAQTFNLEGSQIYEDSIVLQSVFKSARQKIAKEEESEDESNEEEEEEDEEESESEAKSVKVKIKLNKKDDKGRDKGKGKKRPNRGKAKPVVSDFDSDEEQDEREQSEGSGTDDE

Turning to `Nc1nnc(-c2ccccc2O)cc1N1CC2CCC(C1)N2c1ccnc(C#CCOC2CCCNC2)c1` (stereo not shown) [Compound 12, 2-(6-amino-5-(8-(2-(3-(piperidin-3-yloxy)prop-1-yn-1-yl)pyridin-4-yl)-3,8-diazabicyclo[3.2.1]octan-3-yl)pyridazin-3-yl)phenol], in test [1], the DC50 lay in the range of 10 to 100 nM and the “BRM IF Degradation Sinf (%)” value is listed as “E (E indicates −30%-−70%)”. In test [2], the “Median HiBiT activity 1 μM” value was −45.7932% and the “Median HiBiT activity 10 μM” value is −34.0604%. Also, in test [3], the DC50 lay within 10 to 100 nM and the Dmax was 0 to 30%.
Consider `Nc1nnc(-c2ccccc2O)cc1N1CC2CCC(C1)N2c1ccnc(C#CCC2CCCCN2)c1` (stereo not shown) [Compound 13, 2-(6-amino-5-(8-(2-(3-(piperidin-2-yl)prop-1-yn-1-yl)pyridin-4-yl)-3,8-diazabicyclo[3.2.1]octan-3-yl)pyridazin-3-yl)phenol], for which, in test [1], the DC50 is 10 to 100 nM and the “BRM IF Degradation Sinf (%)” value was “E (E indicates −30%-−70%)”. In test [2], the “Median HiBiT activity 1 μM” value is −44.9864% and the “Median HiBiT activity 10 μM” value is listed as −32.1865%. Moreover, in test [3], the DC50 lay within 10 to 100 nM and the Dmax was 0 to 30%.
Take `Nc1nnc(-c2ccccc2O)cc1N1CC2CCC(C1)N2c1ccnc(C#CC2CCCN2)c1` (stereo not shown) [Compound 14, 2-(6-amino-5-(8-(2-(pyrrolidin-2-ylethynyl)pyridin-4-yl)-3,8-diazabicyclo[3.2.1]octan-3-yl)pyridazin-3-yl)phenol]: in test [1], the DC50 was < 10 nM and the “BRM IF Degradation Sinf (%)” value was “E (E indicates −30%-−70%)”. In test [2], the “Median HiBiT activity 1 μM” value is on record as −42.9269% and the “Median HiBiT activity 10 μM” value was −50.5501%. Moreover, in test [3], the DC50 is 10 to 100 nM and the Dmax lay within 0 to 30%.
Regarding `Nc1nnc(-c2ccccc2O)cc1N1CC2CCC(C1)N2c1ccnc(C#CCN2CCC(N)C2)c1` (stereo not shown) [Compound 15, 2-(6-amino-5-(8-(2-(3-(3-aminopyrrolidin-1-yl)prop-1-yn-1-yl)pyridin-4-yl)-3,8-diazabicyclo[3.2.1]octan-3-yl)pyridazin-3-yl)phenol], in test [1], the DC50 was > 100 nM and the “BRM IF Degradation Sinf (%)” value was “E (E indicates −30%-−70%)”. In addition, in test [2], the “Median HiBiT activity 1 μM” value was −41.5313% and the “Median HiBiT activity 10 μM” value is recorded as −55.0083%. In test [3], the DC50 was > 100 nM and the Dmax is 0 to 30%.
As for `Nc1nnc(-c2ccccc2O)cc1N1CC2CCC(C1)N2c1ccnc(C#CCC2CCCN2)c1` (stereo not shown) [Compound 16, 2-(6-amino-5-(8-(2-(3-(pyrrolidin-2-yl)prop-1-yn-1-yl)pyridin-4-yl)-3,8-diazabicyclo[3.2.1]octan-3-yl)pyridazin-3-yl)phenol], in test [1], the DC50 lay in the range of 10 to 100 nM and the “BRM IF Degradation Sinf (%)” value is given as “E (E indicates −30%-−70%)”. Moreover, in test [2], the “Median HiBiT activity 1 μM” value is listed as −38.7074% and the “Median HiBiT activity 10 μM” value is on record as −29.4258%. In test [3], the DC50 is 10 to 100 nM and the Dmax lay within 0 to 30%.
For the compound `Nc1nnc(-c2ccccc2O)cc1N1CC2CCC(C1)N2c1ccnc(C#CC2CCN2)c1` (stereo not shown) [Compound 17, 2-(6-amino-5-(8-(2-(azetidin-2-ylethynyl)pyridin-4-yl)-3,8-diazabicyclo[3.2.1]octan-3-yl)pyridazin-3-yl)phenol], in test [1], the DC50 is 10 to 100 nM and the “BRM IF Degradation Sinf (%)” value is “E (E indicates −30%-−70%)”. In test [2], the “Median HiBiT activity 1 μM” value is reported as −37.0864% and the “Median HiBiT activity 10 μM” value is reported as −51.9890%. In test [3], the DC50 is 10 to 100 nM and the Dmax was 0 to 30%.
With `Nc1nnc(-c2ccccc2O)cc1N1CC2CCC(C1)N2c1ccnc(C#CCN2CCS(=O)(=O)CC2)c1` [Compound 18, 4-(3-(4-(3-(3-amino-6-(2-hydroxyphenyl)pyridazin-4-yl)-3,8-diazabicyclo[3.2.1]octan-8-yl)pyridin-2-yl)prop-2-yn-1-yl)thiomorpholine1,1-dioxide], in test [1], the DC50 was > 100 nM and the “BRM IF Degradation Sinf (%)” value was “E (E indicates −30%-−70%)”. Besides, in test [2], the “Median HiBiT activity 1 μM” value is recorded as −37.0807% and the “Median HiBiT activity 10 μM” value is recorded as −56.4043%. In test [3], the DC50 is > 100 nM.
As for `Nc1nnc(-c2ccccc2O)cc1N1CC2CCC(C1)N2c1ccnc(C#CC2CCNCC2)c1` [Compound 19, 2-(6-amino-5-(8-(2-(piperidin-4-ylethynyl)pyridin-4-yl)-3,8-diazabicyclo[3.2.1]octan-3-yl)pyridazin-3-yl)phenol], in test [1], the DC50 is 10 to 100 nM and the “BRM IF Degradation Sinf (%)” value is reported as “E (E indicates −30%-−70%)”. Further, in test [2], the “Median HiBiT activity 1 μM” value is −36.9943% and the “Median HiBiT activity 10 μM” value is on record as −56.3342%. Moreover, in test [3], the DC50 is > 100 nM and the Dmax is 30 to 70%.
Consider `NCCCCCCc1cc(N2C3CCC2CN(c2cc(-c4ccccc4O)nnc2N)C3)ccn1` [Compound 20, 2-(6-amino-5-(8-(2-(6-aminohexyl)pyridin-4-yl)-3,8-diazabicyclo[3.2.1]octan-3-yl)pyridazin-3-yl)phenol], for which, in test [1], the DC50 lay in the range of 10 to 100 nM and the “BRM IF Degradation Sinf (%)” value was “F (F indicates −71%-−120%)”. Further, in test [2], the “Median HiBiT activity 1 μM” value was −33.3403% and the “Median HiBiT activity 10 μM” value is recorded as −8.91%. For the same compound, in test [3], the DC50 is 10 to 100 nM and the Dmax was in the range of 71 to 120%.
On to `Cn1cc(C#Cc2cc(N3C4CCC3CN(c3cc(-c5ccccc5O)nnc3N)C4)ccn2)cn1` [Compound 21, 2-(6-amino-5-(8-(2-((1-methyl-1H-pyrazol-4-yl)ethynyl)pyridin-4-yl)-3,8-diazabicyclo[3.2.1]octan-3-yl)pyridazin-3-yl)phenol], for which the DC50 in test [1] was > 100 nM. In addition, in test [2], the “Median HiBiT activity 1 μM” value is recorded as −32.7297% and the “Median HiBiT activity 10 μM” value is given as −42.1813%. Also, in test [3], the DC50 was in the range of 10 to 100 nM and the Dmax lay within 0 to 30%.
On the same counts, the results for `Nc1nnc(-c2ccccc2O)cc1N1CC2CCC(C1)N2c1ccnc(C#CC2CCOCC2)c1` [Compound 22, 2-(6-amino-5-(8-(2-((tetrahydro-2H-pyran-4-yl)ethynyl)pyridin-4-yl)-3,8-diazabicyclo[3.2.1]octan-3-yl)pyridazin-3-yl)phenol] are > 100 nM, −30.6701%, −33.6373%, > 100 nM and 0 to 30%.
As for `C[C@@H](N)C#Cc1cc(N2C3CCC2CN(c2cc(-c4ccccc4O)nnc2N)C3)ccn1` [Compound 23, 2-(6-amino-5-(8-(2-((R)-3-aminobut-1-yn-1-yl)pyridin-4-yl)-3,8-diazabicyclo[3.2.1]octan-3-yl)pyridazin-3-yl)phenol], in test [1], the DC50 was < 10 nM and the “BRM IF Degradation Sinf (%)” value was “E (E indicates −30%-−70%)”. For the same compound, in test [2], the “Median HiBiT activity 1 μM” value is given as −29.3818% and the “Median HiBiT activity 10 μM” value is −58.9213%. For the same compound, in test [3], the DC50 is 10 to 100 nM and the Dmax is 30 to 70%.
For the compound `NCC#Cc1cc(N2C3CCC2CN(c2cc(-c4ccccc4O)nnc2N)C3)ccn1` [Compound 24, 2-(6-amino-5-(8-(2-(3-aminoprop-1-yn-1-yl)pyridin-4-yl)-3,8-diazabicyclo[3.2.1]octan-3-yl)pyridazin-3-yl)phenol], in test [1], the DC50 is 10 to 100 nM and the “BRM IF Degradation Sinf (%)” value is “E (E indicates −30%-−70%)”. Further, in test [2], the “Median HiBiT activity 1 μM” value is −27.1137% and the “Median HiBiT activity 10 μM” value was −43.5174%. Further, the DC50 in test [3] is > 100 nM.
In the same order, the values of `Nc1nnc(-c2ccccc2O)cc1N1CC2CCC(C1)N2c1ccnc(C#CC2CCNC2)c1` (stereo not shown) [Compound 25, 2-(6-amino-5-(8-(2-(pyrrolidin-3-ylethynyl)pyridin-4-yl)-3,8-diazabicyclo[3.2.1]octan-3-yl)pyridazin-3-yl)phenol] are > 100 nM, “E (E indicates −30%-−70%)”, −26.7344%, −55.1975% and > 100 nM.
